Measurements published in ChEMBL document CHEMBL1144613, “Substituted acyclic sulfonamides as human cannabinoid-1 receptor inverse agonists” (Bioorg Med Chem Lett, 2007).

Columns and labels:
Cannabinoid receptor 1 [1] = target: Cannabinoid receptor 1 (Homo sapiens, UniProt P21554); test: biochemical; assay type: cell-based, CHO
Cannabinoid receptor 2 = Cannabinoid receptor 2 (Homo sapiens, UniProt P34972); test: Displacement of [3H]CP-55940 from human recombinant CB2 receptor expressed in CHO cells; assay type: cell-based
[2] = Ratio of drug level in brain to plasma in rat at 1 mg/kg, iv at 0.25 h; assay type: ADME, organism-based; set-up: dose 1 mg/kg, route intravenous
[3] = Plasma concentration in rat at 1 mg/kg, iv at 0.25 h; assay type: ADME, organism-based; set-up: dose 1 mg/kg, route intravenous
Rattus norvegicus = test: Inhibition of CP-55940-induced hypothermia in rat at 3 mg/kg, iv after 30 mins; assay type: functional; settings: 0.5 h
[4] = Brain concentration in rat at 1 mg/kg, iv at 0.25 h; assay type: ADME, organism-based; set-up: dose 1 mg/kg, route intravenous; settings: read-out: Activity
[5] = Oral bioavailability in rat at 1 mg/kg, iv or 2 mg/kg, po; assay type: ADME, organism-based; settings: in vivo
[6] = Brain concentration in rat at 1 mg/kg, iv at 2 hrs; assay type: ADME, organism-based; set-up: dose 1 mg/kg, route intravenous; settings: read-out: Activity
[7] = Cmax in rat at 1 mg/kg, iv or 2 mg/kg, po; assay type: ADME, organism-based; settings: in vivo
[8] = Plasma concentration in rat at 1 mg/kg, iv at 1 h; assay type: ADME, organism-based; set-up: dose 1 mg/kg, route intravenous
[9] = Volume of distribution at steady state in rat at 1 mg/kg, iv or 2 mg/kg, po; assay type: ADME, organism-based; settings: in vivo, read-out: Vdss
[10] = Half life in rat at 1 mg/kg, iv or 2 mg/kg, po; assay type: ADME, organism-based; settings: in vivo
[11] = Ratio of drug level in brain to plasma in rat at 1 mg/kg, iv at 1 h; assay type: ADME, organism-based; set-up: dose 1 mg/kg, route intravenous
[12] = Brain concentration in rat at 1 mg/kg, iv at 1 h; assay type: ADME, organism-based; set-up: dose 1 mg/kg, route intravenous; settings: read-out: Activity
[13] = Ratio of drug level in brain to plasma in rat at 1 mg/kg, iv at 2 hrs; assay type: ADME, organism-based; set-up: dose 1 mg/kg, route intravenous
Cannabinoid receptor 1 [14] = target: Cannabinoid receptor 1 (Rattus norvegicus, UniProt P20272); test: Binding affinity at rat CB1 receptor
[15] = Plasma clearance in rat at 1 mg/kg, iv or 2 mg/kg, po; assay type: ADME, organism-based
[16] = Plasma concentration in rat at 1 mg/kg, iv at 2 hrs; assay type: ADME, organism-based; set-up: dose 1 mg/kg, route intravenous

Chain of Cannabinoid receptor 2 (P34972 whole entry): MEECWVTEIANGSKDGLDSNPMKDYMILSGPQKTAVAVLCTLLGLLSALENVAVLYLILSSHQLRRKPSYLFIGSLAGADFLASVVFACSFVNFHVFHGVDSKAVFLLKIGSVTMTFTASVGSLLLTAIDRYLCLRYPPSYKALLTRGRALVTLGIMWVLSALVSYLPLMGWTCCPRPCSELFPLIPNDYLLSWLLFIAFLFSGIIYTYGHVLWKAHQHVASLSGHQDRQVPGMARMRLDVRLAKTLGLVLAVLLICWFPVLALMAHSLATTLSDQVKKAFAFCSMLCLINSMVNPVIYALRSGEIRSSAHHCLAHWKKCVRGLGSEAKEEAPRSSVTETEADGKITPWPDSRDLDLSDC
Chain of Cannabinoid receptor 1 (Homo sapiens, UniProt P21554) (P21554 whole entry): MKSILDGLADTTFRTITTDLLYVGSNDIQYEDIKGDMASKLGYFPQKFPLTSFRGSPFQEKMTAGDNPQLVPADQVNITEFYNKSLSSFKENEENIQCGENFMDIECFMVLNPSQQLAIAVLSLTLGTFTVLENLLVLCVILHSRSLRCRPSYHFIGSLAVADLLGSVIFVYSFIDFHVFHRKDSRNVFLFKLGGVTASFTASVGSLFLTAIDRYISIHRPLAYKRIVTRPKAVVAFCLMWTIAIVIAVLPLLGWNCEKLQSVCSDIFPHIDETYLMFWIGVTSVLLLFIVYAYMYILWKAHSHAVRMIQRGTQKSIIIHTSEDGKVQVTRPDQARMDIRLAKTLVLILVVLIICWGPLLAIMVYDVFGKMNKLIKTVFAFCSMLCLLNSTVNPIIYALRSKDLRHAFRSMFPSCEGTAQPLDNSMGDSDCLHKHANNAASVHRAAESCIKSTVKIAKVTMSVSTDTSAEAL
Chain of Cannabinoid receptor 1 (Rattus norvegicus, UniProt P20272) (P20272 whole entry): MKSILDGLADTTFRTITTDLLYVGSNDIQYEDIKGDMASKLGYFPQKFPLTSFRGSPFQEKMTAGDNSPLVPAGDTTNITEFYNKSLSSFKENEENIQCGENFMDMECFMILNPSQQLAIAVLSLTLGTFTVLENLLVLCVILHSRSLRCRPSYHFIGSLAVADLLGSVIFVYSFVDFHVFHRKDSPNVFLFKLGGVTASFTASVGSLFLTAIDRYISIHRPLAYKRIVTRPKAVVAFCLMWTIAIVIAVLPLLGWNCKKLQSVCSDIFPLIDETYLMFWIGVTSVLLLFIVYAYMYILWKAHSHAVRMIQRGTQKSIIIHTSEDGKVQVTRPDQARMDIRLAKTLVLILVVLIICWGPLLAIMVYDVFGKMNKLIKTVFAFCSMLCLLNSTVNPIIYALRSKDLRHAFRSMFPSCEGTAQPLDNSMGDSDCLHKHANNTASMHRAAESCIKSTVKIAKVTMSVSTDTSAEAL

Row | Structure (SMILES) | IC50 (Cannabinoid receptor 1 [1]) [µM] | IC50 (Cannabinoid receptor 2) [µM] | other results
1 | C[C@H](NS(=O)(=O)c1cccc(Cl)c1Cl)[C@@H](Cc1ccc(Cl)cc1)c1cccc(C#N)c1 | 0.0107 | 0.202 | –
2 | C[C@@H]([C@@H](Cc1ccc(Cl)cc1)c1cccc(C#N)c1)N(C)S(C)(=O)=O | > 2 | > 2 | –
3 | C[C@H](NC(=O)c1cc(Cl)cc(Cl)c1)[C@@H](Cc1ccc(Cl)cc1)c1cccc(C#N)c1 | 0.282 | 0.181 | –
4 | CCCCS(=O)(=O)N[C@@H](C)[C@@H](Cc1ccc(Cl)cc1)c1cccc(C#N)c1 | 0.0752 | 1.44 | –
5 | C[C@H](NS(=O)(=O)C(C)(C)C)[C@@H](Cc1ccc(Cl)cc1)c1cccc(C#N)c1 | 1.68 | > 2 | –
6 | C[C@H](NC(=O)c1c(Cl)cccc1Cl)[C@@H](Cc1ccc(Cl)cc1)c1cccc(C#N)c1 | 0.0372 | 0.945 | –
7 | C[C@H](NS(=O)(=O)c1c(Cl)cccc1Cl)[C@@H](Cc1ccc(Cl)cc1)c1cccc(C#N)c1 | 0.0298 | 0.283 | –
8 | C[C@H](NS(=O)(=O)c1cc(Cl)cc(Cl)c1)[C@@H](Cc1ccc(Cl)cc1)c1cccc(C#N)c1 | 0.0114 | 0.998 | –
9 | C[C@@H]([C@@H](Cc1ccc(Cl)cc1)c1cccc(C#N)c1)N(C)S(=O)(=O)c1cc(Cl)cc(Cl)c1 | > 2 | > 2 | –
10 | C[C@H](NS(=O)(=O)c1cc(C(F)(F)F)cc(C(F)(F)F)c1)[C@@H](Cc1ccc(Cl)cc1)c1cccc(C#N)c1 | 0.0032 | 1.76 | –
11 | C[C@H](NS(=O)(=O)c1cc(F)cc(F)c1)[C@@H](Cc1ccc(Cl)cc1)c1cccc(C#N)c1 | 0.0051 | 1.08 | –
12 | C[C@H](NS(=O)(=O)c1cccc(-c2ccccc2)c1)[C@@H](Cc1ccc(Cl)cc1)c1cccc(C#N)c1 | 0.0028 | 0.394 | Kp at 0.25 h [2]: 0.66; concentration at 0.25 h [3]: 0.22 µM; inhibition in vivo at 3 mg/kg (Rattus norvegicus): 48.9%; concentration at 0.25 h [4]: 0.146 µM; bioavailability [5]: 48%; concentration at 2 h [6]: 0.054 µM; Cmax [7]: 0.343 µM; concentration at 1 h [8]: 0.113 µM; Vd [9]: 6.9 L/kg; half-life [10]: 8.4 h; Kp at 1 h [11]: 0.82; concentration at 1 h [12]: 0.092 µM; Kp at 2 h [13]: 1; IC50 (Cannabinoid receptor 1 [14]): 0.0023 µM; clearance [15]: 0.636 L/h/kg; concentration at 2 h [16]: 0.054 µM
13 | C[C@H](NS(=O)(=O)Cc1ccc(Cl)cc1)[C@@H](Cc1ccc(Cl)cc1)c1cccc(C#N)c1 | 0.0154 | 1.76 | –
14 | C[C@H](NC(=O)CCc1ccccc1)[C@@H](Cc1ccc(Cl)cc1)c1cccc(C#N)c1 | 0.0383 | 1.37 | –
15 | C[C@H](NS(=O)(=O)c1cc(Cl)ccc1Cl)[C@@H](Cc1ccc(Cl)cc1)c1cccc(C#N)c1 | 0.0074 | 0.498 | –
16 | C[C@H](NS(=O)(=O)Cc1cccc(Cl)c1)[C@@H](Cc1ccc(Cl)cc1)c1cccc(C#N)c1 | 0.0535 | 2 | –
17 | C[C@H](NS(=O)(=O)c1cc(Cl)c(Cl)cc1Cl)[C@@H](Cc1ccc(Cl)cc1)c1cccc(C#N)c1 | 0.016 | 0.622 | –
18 | C[C@H](NS(C)(=O)=O)[C@@H](Cc1ccc(Cl)cc1)c1cccc(C#N)c1 | > 2 | > 2 | –
19 | Cc1c(C(=O)NN2CCCCC2)nn(-c2ccc(Cl)cc2Cl)c1-c1ccc(Cl)cc1 [RIMONABANT] | – | – | inhibition in vivo at 3 mg/kg (Rattus norvegicus): 97.9%

More lines, main results first:

Row | IC50 (Cannabinoid receptor 1 [1]) [µM] | IC50 (Cannabinoid receptor 2) [µM] | Structure (SMILES) | other results
20 | 0.0441 | > 2 | C[C@H](NC(=O)Cc1ccccc1)[C@@H](Cc1ccc(Cl)cc1)c1cccc(C#N)c1 | –
21 | 0.0123 | 0.668 | C[C@H](NS(=O)(=O)c1ccccc1Cl)[C@@H](Cc1ccc(Cl)cc1)c1cccc(C#N)c1 | –
22 | 0.0139 | 0.808 | C[C@H](NS(=O)(=O)c1cccc(Cl)c1)[C@@H](Cc1ccc(Cl)cc1)c1cccc(C#N)c1 | –
23 | 0.023 | 0.406 | C[C@H](NS(=O)(=O)c1ccc(-c2ccccc2)cc1)[C@@H](Cc1ccc(Cl)cc1)c1cccc(C#N)c1 | –
24 | 0.0211 | 1.12 | C[C@H](NS(=O)(=O)c1cccc2ccccc12)[C@@H](Cc1ccc(Cl)cc1)c1cccc(C#N)c1 | –
25 | 0.0071 | 0.301 | C[C@H](NS(=O)(=O)c1ccc(Cl)cc1Cl)[C@@H](Cc1ccc(Cl)cc1)c1cccc(C#N)c1 | –
26 | 0.0209 | > 2 | C[C@H](NS(=O)(=O)Cc1ccccc1)[C@@H](Cc1ccc(Cl)cc1)c1cccc(C#N)c1 | –
27 | 0.016 | 1.92 | C[C@H](NS(=O)(=O)Cc1ccccc1Cl)[C@@H](Cc1ccc(Cl)cc1)c1cccc(C#N)c1 | –
28 | 0.0193 | 0.904 | C[C@H](NS(=O)(=O)CCc1ccccc1)[C@@H](Cc1ccc(Cl)cc1)c1cccc(C#N)c1 | –
29 | 0.0418 | 1.08 | C[C@H](NS(=O)(=O)/C=C/c1ccccc1)[C@@H](Cc1ccc(Cl)cc1)c1cccc(C#N)c1 | –
30 | 0.845 | 1.91 | C[C@H](NC(=O)c1ccccc1)[C@@H](Cc1ccc(Cl)cc1)c1cccc(C#N)c1 | –
31 | 0.015 | 1.09 | C[C@H](NS(=O)(=O)c1ccc2ccccc2c1)[C@@H](Cc1ccc(Cl)cc1)c1cccc(C#N)c1 | –
32 | 0.0097 | 1.49 | C[C@H](NS(=O)(=O)c1ccccc1)[C@@H](Cc1ccc(Cl)cc1)c1cccc(C#N)c1 | –
33 | 0.0217 | 0.454 | C[C@H](NS(=O)(=O)c1ccc(Cl)cc1)[C@@H](Cc1ccc(Cl)cc1)c1cccc(C#N)c1 | –
